We go through five molecules from ChEMBL document CHEMBL3596107, “Design, synthesis and evaluation of a series of acyclic fleximer nucleoside analogues with anti-coronavirus activity” (Bioorg Med Chem Lett, 2015).

The structures appear in SMILES notation.

A short description of data set [1]: Antiviral activity against Human coronavirus NL63 infected in African green monkey Vero118 cells assessed as inhibition of virus-induced cytopathic effect after 5 days by microscopic analysis. The class given is functional. The settings on record: Human coronavirus NL63, 120 h.
A short description of data set [2]: Cytotoxicity against mock-infected African green monkey Vero118 cells assessed as inhibition of cell survival after 5 days by microscopic analysis. The class given is cell-based. The settings on record: chlorocebus sabaeus; for CC50: 120 h.
In data set [3] the test system is Middle East respiratory syndrome-related coronavirus. The experiment in a line: Antiviral activity against MERS-CoV EMC/2012 infected in human HuH7 cells assessed as inhibition of virus-induced cytopathic effect after 2 days by CellTiter 96 AQueous Non-Radioactive Cell Proliferation Assay. The class given is functional, cell-based. The settings on record: EMC/2012, Huh-7, 48 h. In general terms: Protection from cytopathic effect is a common read-out in antiviral testing.

Data set [4] in a line: Cytotoxicity against mock-infected human HuH7 cells assessed as inhibition of cell survival after 2 days by CellTiter 96 AQueous Non-Radioactive Cell Proliferation Assay. The class given is cell-based. The settings on record: huh-7, 48 h.
The test system of data set [5] is Middle East respiratory syndrome-related coronavirus. The experiment in a line: Antiviral activity against MERS-CoV EMC/2012 infected in African green monkey Vero cells assessed as inhibition of virus-induced cytopathic effect after 3 days by CellTiter 96 AQueous Non-Radioactive Cell Proliferation Assay. Type of data set: functional, cell-based. The settings on record: EMC/2012, Vero, 72 h.

Data set [6] deals with Vero. In words: Cytotoxicity against mock-infected African green monkey Vero cells assessed as inhibition of cell survival after 3 days by CellTiter 96 AQueous Non-Radioactive Cell Proliferation Assay. The class given is cell-based. The note with it: chlorocebus sabaeus, 72 h.
Data set [7] can be described thus: Antiviral activity against SARS-CoV Frankfurt 1 infected in African green monkey Vero E6 cells assessed as inhibition of virus-induced cytopathic effect after 3 days by CellTiter 96 AQueous Non-Radioactive Cell Proliferation Assay. Type of data set: functional, cell-based, SARS coronavirus Frankfurt 1.
Data set [8] is described as follows: Cytotoxicity against mock-infected African green monkey Vero E6 cells assessed as inhibition of cell survival after 3 days by CellTiter 96 AQueous Non-Radioactive Cell Proliferation Assay. The class given is cell-based. The settings on record: chlorocebus sabaeus, vero c1008, 72 h.
Data set [9] concerns SARS-CoV. In words: Antiviral activity against SARS-CoV assessed as inhibition of viral replication. Type of data set: functional, Severe acute respiratory syndrome-related coronavirus.

What is called EC50 is the concentration needed to bring the measured effect to its halfway point. What is called CC50 is the concentration at which the toxic effect on the cells reaches its halfway point. Turning to `OCCOCn1cnc(-c2cnc(O)nc2O)c1`, the EC50 in [1] is 92 µM. In addition, in [2], the CC50 was more than 200 µM.

In the case of `COc1nc(N)ncc1-c1cn(COCCO)cn1`, the EC50 in data set [1] was 8.8 µM; in data set [3], 27 µM; in [5] it was 23 µM; in data set [7] (vero e6), “Not Active”. Besides, the CC50 in data set [2] is 120 µM; in data set [4] it was 149 µM; in data set [6], 71 µM; in [8] it was 138 µM.

As to `Nc1ncc(-c2cn(COCCO)cn2)c(O)n1`, in data set [1], the half-maximal effective concentration (EC50) was more than 200 µM. Moreover, the CC50 in [2] is more than 200 µM.

As for `Nc1nc2c(ncn2COCCO)c(=O)[nH]1` [ACYCLOVIR], the EC50 in data set [1] was more than 100 µM; in [3] it was more than 1000 µM; in [5], more than 1000 µM; in data set [7] (Severe acute respiratory syndrome-related coronavirus, Vero C1008, 72 h, read-out: EC50), more than 1000 µM. Also, the CC50 at 120 h in [2] (mock-infected Vero118 cells) is more than 100 µM. The CC50 in data set [4], in [6] and in data set [8] was more than 1000 µM throughout.

Regarding `NC(=O)c1ncn([C@@H]2O[C@H](CO)[C@@H](O)[C@H]2O)n1` [RIBAVIRIN], the INH in [9] was determined as 500 µg/mL.
